Columns and labels:
[1] = tested on: p-p70 S6 Kinase (Thr389) in MCF-7 cells; test: AlphaLISA Ultra pS6K1 assay; type: cell-based; conditions: Homo sapiens, 1.5 h; MCF7 cells, 90 min
How it was run: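 Phospho-S6K1 (Thr389) quantified by AlphaLISA Ultra read-out (2 h acceptor, then 2 h donor beads) in lysates of MCF-7 cells. Cells were plated 20–24 h before, refed 2 h, exposed to compounds for 90 min at 0.5% final DMSO, and lysates stored at −80 °C.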

[2] = tested on: pS6K1 T389 and pAkt S473 in PC3 cells; test: Western blot based pS6K1 and pAKT assay at 24 and 48 hour timepoints; type: cell-based
Method: Example 57: Western Blot Based pS6K1 and pAKT Assay at 24 and 48 Hour Timepoints
Assay Protocol: • 1. Seed six well plate with 500,000 PC3 cells per well and incubate for 20˜24 hour. • 2. Add compounds into the cell plate. Incubate for 24 to 48 hours. • 4. Plate is placed on ice and the media is removed via aspiration. The wells are washed with 1 mL of 1x PBS and then fully aspirated. • 5. 110 μL of 1% Triton Lysis Buffer is added and each well is scraped vigorously. • 6. Cell homogenates are transferred to 1.5 mL eppendorf tubes on ice and spun down at 4° C. for 10 minutes at 10,000 rpm. • 7. Protein concentration of resulting cell lysates were quantified utilizing a Bradford assay and the samples run analyzed via Western blot on 4-12% Bis/Tris gels with 1×MES buffer. • 8. The gels were transferred onto membranes at 50V for 100 minutes, blocked with Odyssey Blocking buffer for 30 minutes then incubated overnight with primary antibody (pS6K1 T389 Rabbit or pAkt S473 Rabbit) overnight at 4° C. on a rotator. • 9. The membranes were washed 3× with TBS-T with a 5 minute incubation between each wash then incubated with secondary antibody (LiCor IRDye 800 Donkey Anti Rabbit) for at least 30 minutes. • 10. The membranes were washed 3× with TBS-T with a 5 minute incubation between each wash. • 11. The gels were then incubated for 5 minutes with PBS at room temperature then imaged using a Li-Cor.
Compounds that are not selective by comparing pS6K1 and pAKT IC50 by kinase assays are indicated by “NO” in the “mTORC1 selective @ 90 min” column of Table 4. […] Compounds that are not selective at the 24 hrs mark are indicated by “NO” in the “mTORC1 selective @ 24 hrs” column of Table 4. “N/A” stands for “not assayed” and “N/C” stands for “not calculated”.

| IC50 [1] | Compound | mTORC1 selective @ 24 hrs [2] |
| --- | --- | --- |
| < 0.001 µM | CO[C@@H]1C[C@H](C[C@@H](C)[C@@H]2CC(=O)[C@H](C)/C=C(\C)[C@@H](O)[C@@H](OC)C(=O)[C@H](C)C[C@H](C)/C=C/C=C/C=C(\C)[C@@H](OCCOC3COC3)C[C@@H]3CC[C@@H](C)[C@@](O)(O3)C(=O)C(=O)N3CCCC[C@H]3C(=O)O2)CC[C@H]1OC(=O)NCCN1CCOCC1 [I-21, [(42S,44R,46R)-4-[(2R)-2-[(27E,29E,31E,32E,38R,39S,40R,41R,43S,45S,47S,48S,50R,51R,61R)-50,61-dihydroxy-51-methoxy-38,39,40,41,52,53-hexamethyl-47-[2-(oxetan-3-yloxy)ethoxy]-54,55,56,57,58-pentaoxo-75,76-dioxa-64-azatricyclohexatriaconta-27,29,31(52),32(53)-tetraen-48-yl]propyl]-46-methoxy-44-cyclohexyl] N-(2-morpholinoethyl)carbamate] | Yes |
| ≥ 1 µM | CO[C@@H]1/C(C)=C/[C@@H](C)C(=O)C[C@@H]([C@H](C)C[C@@H]2CC[C@@H](OC)[C@H](OC)C2)OC(=O)[C@@H]2CCCCN2C(=O)C(=O)[C@]2(O)O[C@@H](CC[C@H]2C)C[C@H](OCC2COCCO2)/C(C)=C/C=C/C=C/[C@@H](C)C[C@@H](C)C(=O)[C@@H]1OC (stereo partly drawn) [I-40, (26E,28E,30E,31E,34R,35S,36R,37R,39S,41S,43S,44S,46R,47R,56R)-44-[(1R)-2-[(1S,3R,4R)-3,4-dimethoxycyclohexyl]-1-methyl-ethyl]-43-(1,4-dioxan-2-ylmethoxy)-56-hydroxy-46,47-dimethoxy-34,35,36,37,48,49-hexamethyl-66,67-dioxa-57-azatricyclohexatriaconta-26,28,30(48),31(49)-tetraene-50,51,52,53,54-pentone] | Yes |
| < 0.001 µM | CO[C@@H]1/C(C)=C/[C@@H](C)C(=O)C[C@@H]([C@H](C)C[C@@H]2CC[C@@H](OCCCO)[C@H](OC)C2)OC(=O)[C@@H]2CCCCN2C(=O)C(=O)[C@]2(O)O[C@@H](CC[C@H]2C)C[C@H](OCCOC2COC2)/C(C)=C/C=C/C=C/[C@@H](C)C[C@@H](C)C(=O)[C@@H]1OC [I-45, (23E,25E,27E,28E,35R,36S,37R,38R,40S,42S,44S,45S,47R,48R,57R)-47,57-dihydroxy-45-[(1R)-2-[(1S,3R,4R)-4-(3-hydroxypropoxy)-3-methoxy-cyclohexyl]-1-methyl-ethyl]-48-methoxy-35,36,37,38,49,50-hexamethyl-44-[2-(oxetan-3-yloxy)ethoxy]-68,69-dioxa-58-azatricyclohexatriaconta-23,25,27(49),28(50)-tetraene-51,52,53,54,55-pentone] | Yes |
| 0.001 to 0.01 µM | CO[C@@H]1C[C@H](C[C@@H](C)[C@@H]2CC(=O)[C@H](C)/C=C(\C)[C@@H](O)[C@@H](OC)C(=O)[C@H](C)C[C@H](C)/C=C/C=C/C=C(\C)[C@@H](OCC3COCCO3)C[C@@H]3CC[C@@H](C)[C@@](O)(O3)C(=O)C(=O)N3CCCC[C@H]3C(=O)O2)CC[C@H]1OC(F)F (stereo partly drawn) [I-9, (24E,26E,28E,29E,32R,33S,34R,35R,37S,39S,41S,42S,44R,45R,55R)-42-[(1R)-2-[(1S,3R,4R)-4-(difluoromethoxy)-3-methoxy-cyclohexyl]-1-methyl-ethyl]-41-(1,4-dioxan-2-ylmethoxy)-44,55-dihydroxy-45-methoxy-32,33,34,35,46,47-hexamethyl-66,67-dioxa-56-azatricyclohexatriaconta-24,26,28(46),29(47)-tetraene-48,49,50,51,52-pentone] | Yes |
| 0.01 to 0.1 µM | COCCS(=O)(=O)CCO[C@H]1C[C@@H]2CC[C@@H](C)[C@@](O)(O2)C(=O)C(=O)N2CCCC[C@H]2C(=O)O[C@H]([C@H](C)C[C@@H]2CC[C@@H](OC)[C@H](OC)C2)CC(=O)[C@H](C)/C=C(\C)[C@@H](OC)[C@@H](OC)C(=O)[C@H](C)C[C@H](C)/C=C/C=C/C=C/1C [I-43, (24E,26E,28E,29E,35R,36S,37R,38R,40S,42S,44S,45S,46R,47R,56R)-45-[(1R)-2-[(1S,3R,4R)-3,4-dimethoxycyclohexyl]-1-methyl-ethyl]-56-hydroxy-46,47-dimethoxy-44-[2-(2-methoxyethylsulfonyl)ethoxy]-35,36,37,38,48,49-hexamethyl-66,67-dioxa-57-azatricyclohexatriaconta-24,26,28(48),29(49)-tetraene-50,51,52,53,54-pentone] | Yes |
| 0.01 to 0.1 µM | CO[C@@H]1/C(C)=C/[C@@H](C)C(=O)C[C@@H]([C@H](C)C[C@@H]2CC[C@@H](O)[C@H](OC)C2)OC(=O)[C@@H]2CCCCN2C(=O)C(=O)[C@]2(O)O[C@@H](CC[C@H]2C)C[C@H](OCC2COCCO2)/C(C)=C/C=C/C=C/[C@@H](C)C[C@@H](C)C(=O)[C@@H]1OC (stereo partly drawn) [I-27, (25E,27E,29E,30E,33R,34S,35R,36R,38S,40S,42S,43S,45R,46R,55R)-42-(1,4-dioxan-2-ylmethoxy)-55-hydroxy-43-[(1R)-2-[(1S,3R,4R)-4-hydroxy-3-methoxy-cyclohexyl]-1-methyl-ethyl]-45,46-dimethoxy-33,34,35,36,47,48-hexamethyl-66,67-dioxa-56-azatricyclohexatriaconta-25,27,29(47),30(48)-tetraene-49,50,51,52,53-pentone] | Yes |
| 0.001 to 0.01 µM | COCCOCCO[C@H]1C[C@@H]2CC[C@@H](C)[C@@](O)(O2)C(=O)C(=O)N2CCCC[C@H]2C(=O)O[C@H]([C@H](C)C[C@@H]2CC[C@@H](O)[C@H](OC)C2)CC(=O)[C@H](C)/C=C(\C)[C@@H](OC)[C@@H](OC)C(=O)[C@H](C)C[C@H](C)/C=C/C=C/C=C/1C [I-49, (23E,25E,27E,28E,34R,35S,36R,37R,39S,41S,43S,44S,45R,46R,55R)-55-hydroxy-44-[(1R)-2-[(1S,3R,4R)-4-hydroxy-3-methoxy-cyclohexyl]-1-methyl-ethyl]-45,46-dimethoxy-43-[2-(2-methoxyethoxy)ethoxy]-34,35,36,37,47,48-hexamethyl-64,65-dioxa-56-azatricyclohexatriaconta-23,25,27(47),28(48)-tetraene-49,50,51,52,53-pentone] | Yes |
| 0.001 to 0.01 µM | COCCOCCO[C@H]1C[C@@H]2CC[C@@H](C)[C@@](O)(O2)C(=O)C(=O)N2CCCC[C@H]2C(=O)O[C@H]([C@H](C)C[C@@H]2CC[C@@H](OC(F)F)[C@H](OC)C2)CC(=O)[C@H](C)/C=C(\C)[C@@H](O)[C@@H](OC)C(=O)[C@H](C)C[C@H](C)/C=C/C=C/C=C/1C [I-4, (22E,24E,26E,27E,33R,34S,35R,36R,38S,40S,42S,43S,44R,45R,55R)-43-[(1R)-2-[(1S,3R,4R)-4-(difluoromethoxy)-3-methoxy-cyclohexyl]-1-methyl-ethyl]-44,55-dihydroxy-45-methoxy-42-[2-(2-methoxyethoxy)ethoxy]-33,34,35,36,46,47-hexamethyl-64,65-dioxa-56-azatricyclohexatriaconta-22,24,26(46),27(47)-tetraene-48,49,50,51,52-pentone] | Yes |
| 0.001 to 0.01 µM | COCCOCCO[C@H]1C[C@@H]2CC[C@@H](C)[C@@](O)(O2)C(=O)C(=O)N2CCCC[C@H]2C(=O)O[C@H]([C@H](C)C[C@@H]2CC[C@@H](OP(C)(C)=O)[C@H](OC)C2)CC(=O)[C@H](C)/C=C(\C)[C@@H](OC)[C@@H](OC)C(=O)[C@H](C)C[C@H](C)/C=C/C=C/C=C/1C [I-34, (25E,27E,29E,30E,36R,37S,38R,39R,41S,43S,45S,46S,47R,48R,57R)-46-[(1R)-2-[(1S,3R,4R)-4-dimethylphosphoryloxy-3-methoxy-cyclohexyl]-1-methyl-ethyl]-57-hydroxy-47,48-dimethoxy-45-[2-(2-methoxyethoxy)ethoxy]-36,37,38,39,49,50-hexamethyl-66,67-dioxa-58-azatricyclohexatriaconta-25,27,29(49),30(50)-tetraene-51,52,53,54,55-pentone] | Yes |
| – | CO[C@@H]1/C(C)=C/[C@@H](C)C(=O)C[C@@H]([C@H](C)C[C@@H]2CC[C@@H](OP(C)(C)=O)[C@H](OC)C2)OC(=O)[C@@H]2CCCCN2C(=O)C(=O)[C@]2(O)O[C@@H](CC[C@H]2C)C[C@H](OCCOC2CCOCC2)/C(C)=C/C=C/C=C/[C@@H](C)C[C@@H](C)C(=O)[C@@H]1OC [I-55, (1R,9S,12S,15R,16E,18R,19R,21R,23S,24E,26E,28E,30S,32S,35R)-12-[(1R)-2-[(1S,3R,4R)-4-dimethylphosphoryloxy-3-methoxy-cyclohexyl]-1-methyl-ethyl]-1-hydroxy-18,19-dimethoxy-15,17,21,23,29,35-hexamethyl-30-(2-tetrahydropyran-4-yloxyethoxy)-11,36-dioxa-4-azatricyclo[30.3.1.0^4,9]hexatriaconta-16,24,26,28-tetraene-2,3,10,14,20-pentone] | No |

Source: US20220267352A1, “RAPAMYCIN ANALOGS AND USES THEREOF” (Anakuria Therapeutics, Inc., priority 2021, published 2022)
